From paper PMC6384738, “Structure-Function Studies of Polymyxin B Lipononapeptides” (Molecules, 2019)
≈ marks a conversion by molar mass, not a printed value. *1 amine or outer side, *2 acyl side, *3 side chain or, on linkers, in order; H or OH if unused. Where a SMILES comes first, the peptide text is derived from it. Bridges are numbered along the chain shown (N, C = ends). [ ]: non-standard residue; d: D form. The star is where a group is joined. Benzoyl(3-Ph) = O=C(c1cccc(-c2ccccc2)c1)*; Butanoyl(4-OPh) = O=C(CCCOc1ccccc1)*; NH(2-ClPh) = Clc1ccccc1N*; dDab = NCC[C@@H](N)C(=O)O; Octanoyl = CCCCCCCC(=O)*; Dab = NCC[C@H](N)C(=O)O; CO = O=C([*:1])[*:2]

Experiments:
[1] = system: P. aeruginosa FADDI PA070; test: microbe, parasite or virus in culture
How it was run: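 Broth microdilution; read-out = minimum inhibitory concentration, mg/L. Comparators: polymyxin B, colistin, vancomycin, gentamicin.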

E. coli ATCC 25922 = test: microbe, parasite or virus in culture
How it was run: (§1)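 Antibacterial activity: broth microdilution MIC (mg/L) against the reference isolate.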

K. pneumoniae ATCC 13833 = test: microbe, parasite or virus in culture
How it was run: as §1

P. aeruginosa ATTC 27853 = test: microbe, parasite or virus in culture
How it was run: as §1

K. pneumoniae BAA 2146 = test: microbe, parasite or virus in culture
How it was run: as §1

S. aureus ATCC 25923 = test: microbe, parasite or virus in culture
How it was run: as §1

A. baumannii ATCC 19606 = test: microbe, parasite or virus in culture
How it was run: as §1

[2] = system: K. pneumoniae ATCC 700603; test: microbe, parasite or virus in culture
How it was run: as §1

in vitro = details: human
How it was run: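 HK-2 cells seeded 2000 cells/well in DMEM/F12 with 10% FBS, grown 24 h, then exposed to compounds (300 µM to 2.3 µM, 2-fold series; colistin/polymyxin B 1 mM to 7.8 µM) for 24 h at 37 °C. LDH in medium read at 450 nm after 30 min; cytotoxicity % relative to 1% Triton X-100 and untreated cells.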

| Structure (SMILES) | MIC P. aeruginosa FADDI PA070 ([1]; FADDI PA070, 18 h) [µg/mL] | MIC E. coli ATCC 25922 (E. coli ATCC 25922; ATCC 25922, 18 h) [µg/mL] | MIC K. pneumoniae ATCC 13833 (K. pneumoniae ATCC 13833; ATCC 13833, 18 h) [µg/mL] | MIC P. aeruginosa ATTC 27853 (P. aeruginosa ATTC 27853; ATTC 27853, 18 h) [µg/mL] | MIC K. pneumoniae BAA 2146 (K. pneumoniae BAA 2146; BAA 2146, 18 h) [µg/mL] | MIC S. aureus ATCC 25923 (S. aureus ATCC 25923; ATCC 25923, 18 h) [µg/mL] | MIC A. baumannii ATCC 19606 (A. baumannii ATCC 19606; ATCC 19606, 18 h) [µg/mL] | MIC K. pneumoniae ATCC 700603 ([2]; ATCC 700603, 18 h) [µg/mL] | CC50 at 24 h (in vitro) [µM] | MIC P. aeruginosa FADDI PA070 ([1]; Pmx-resistant clinical isolate, broth microdilution, 18 h) [µg/mL] | MIC E. coli ATCC 25922 (E. coli ATCC 25922; broth microdilution, 18 h, 37 °C) [µg/mL] | MIC K. pneumoniae ATCC 13833 (K. pneumoniae ATCC 13833; broth microdilution, 18 h) [µg/mL] | MIC P. aeruginosa ATTC 27853 (P. aeruginosa ATTC 27853; broth microdilution, 18 h) [µg/mL] | MIC K. pneumoniae BAA 2146 (K. pneumoniae BAA 2146; NDM-1 positive strain, broth microdilution, 18 h) [µg/mL] | MIC S. aureus ATCC 25923 (S. aureus ATCC 25923; Gram-positive strain, broth microdilution, 18 h) [µg/mL] | MIC A. baumannii ATCC 19606 (A. baumannii ATCC 19606; broth microdilution, 18 h) [µg/mL] | MIC K. pneumoniae ATCC 700603 ([2]; ESBL strain, broth microdilution, 18 h) [µg/mL] |
| --- | --- | --- | --- | --- | --- | --- | --- | --- | --- | --- | --- | --- | --- | --- | --- | --- | --- |
| CCCCCCCC(=O)N[C@H](C(=O)N[C@H](CCN)C(=O)N[C@H]1CCNC(=O)[C@H]([C@@H](C)O)NC(=O)[C@H](CCN)NC(=O)[C@H](CCN)NC(=O)[C@H](CC(C)C)NC(=O)[C@@H](Cc2ccccc2)NC(=O)[C@H](CCN)NC1=O)[C@@H](C)O [Compound 21] (Octanoyl-T[dDab][Dab][Dab][dF]L[Dab][Dab]T; lactam 3-C) | 8 (≈ 7.34 µM) | 0.5 (≈ 0.459 µM) | 4 (≈ 3.67 µM) | 2 (≈ 1.84 µM) | 1 (≈ 0.918 µM) | >32 | 8 (≈ 7.34 µM) | 1 (≈ 0.918 µM) | 289 |  |  |  |  |  |  |  |  |
| CC(C)C[C@@H]1NC(=O)[C@@H](Cc2ccccc2)NC(=O)[C@H](CCN)NC(=O)[C@@H](NC(=O)[C@@H](CCN)NC(=O)[C@@H](NC(=O)c2cccc(-c3ccccc3)c2)[C@@H](C)O)CCNC(=O)[C@H]([C@@H](C)O)NC(=O)[C@H](CCN)NC(=O)[C@H](CCN)NC1=O [Compound 27] ({Benzoyl(3-Ph)}-T[dDab][Dab][Dab][dF]L[Dab][Dab]T; lactam 3-C) | 8 (≈ 7 µM) | 4 (≈ 3.5 µM) | 32 (≈ 28 µM) | 2 (≈ 1.75 µM) | 8 (≈ 7 µM) | >32 | >32 | 16 (≈ 14 µM) | > 300 |  |  |  |  |  |  |  |  |
| CC(C)C[C@@H]1NC(=O)[C@@H](Cc2ccccc2)NC(=O)[C@H](CCN)NC(=O)[C@@H](NC(=O)[C@@H](CCN)NC(=O)[C@@H](NC(=O)Nc2ccccc2Cl)[C@@H](C)O)CCNC(=O)[C@H]([C@@H](C)O)NC(=O)[C@H](CCN)NC(=O)[C@H](CCN)NC1=O [Compound 22] ({NH(2-ClPh)-CO}-T[dDab][Dab][Dab][dF]L[Dab][Dab]T; lactam 3-C) |  |  |  |  |  |  |  |  | > 300 | >32 | 16 (≈ 14.3 µM) | 16 (≈ 14.3 µM) | 2 (≈ 1.79 µM) | 16 (≈ 14.3 µM) | >32 | >32 | 16 (≈ 14.3 µM) |
| CC(C)C[C@@H]1NC(=O)[C@@H](Cc2ccccc2)NC(=O)[C@H](CCN)NC(=O)[C@@H](NC(=O)[C@@H](CCN)NC(=O)[C@@H](NC(=O)CCCOc2ccccc2)[C@@H](C)O)CCNC(=O)[C@H]([C@@H](C)O)NC(=O)[C@H](CCN)NC(=O)[C@H](CCN)NC1=O [Compound 26] ({Butanoyl(4-OPh)}-T[dDab][Dab][Dab][dF]L[Dab][Dab]T; lactam 3-C) | >32 | 1 (≈ 0.889 µM) | 4 (≈ 3.55 µM) | 2 (≈ 1.78 µM) | 1 (≈ 0.889 µM) | >32 | 16 (≈ 14.2 µM) | 1 (≈ 0.889 µM) | > 300 |  |  |  |  |  |  |  |  |

Further lines, with some results ahead:

| MIC P. aeruginosa FADDI PA070 ([1]; FADDI PA070, 18 h) [µg/mL] | MIC E. coli ATCC 25922 (E. coli ATCC 25922; ATCC 25922, 18 h) [µg/mL] | MIC K. pneumoniae ATCC 13833 (K. pneumoniae ATCC 13833; ATCC 13833, 18 h) [µg/mL] | MIC P. aeruginosa ATTC 27853 (P. aeruginosa ATTC 27853; ATTC 27853, 18 h) [µg/mL] | MIC K. pneumoniae BAA 2146 (K. pneumoniae BAA 2146; BAA 2146, 18 h) [µg/mL] | MIC S. aureus ATCC 25923 (S. aureus ATCC 25923; ATCC 25923, 18 h) [µg/mL] | MIC A. baumannii ATCC 19606 (A. baumannii ATCC 19606; ATCC 19606, 18 h) [µg/mL] | MIC K. pneumoniae ATCC 700603 ([2]; ATCC 700603, 18 h) [µg/mL] | Structure (SMILES) | CC50 at 24 h (in vitro) [µM] | MIC P. aeruginosa FADDI PA070 ([1]; Pmx-resistant clinical isolate, broth microdilution, 18 h) [µg/mL] | MIC E. coli ATCC 25922 (E. coli ATCC 25922; broth microdilution, 18 h, 37 °C) [µg/mL] | MIC K. pneumoniae ATCC 13833 (K. pneumoniae ATCC 13833; broth microdilution, 18 h) [µg/mL] | MIC P. aeruginosa ATTC 27853 (P. aeruginosa ATTC 27853; broth microdilution, 18 h) [µg/mL] | MIC K. pneumoniae BAA 2146 (K. pneumoniae BAA 2146; NDM-1 positive strain, broth microdilution, 18 h) [µg/mL] | MIC S. aureus ATCC 25923 (S. aureus ATCC 25923; Gram-positive strain, broth microdilution, 18 h) [µg/mL] | MIC A. baumannii ATCC 19606 (A. baumannii ATCC 19606; broth microdilution, 18 h) [µg/mL] | MIC K. pneumoniae ATCC 700603 ([2]; ESBL strain, broth microdilution, 18 h) [µg/mL] |
| --- | --- | --- | --- | --- | --- | --- | --- | --- | --- | --- | --- | --- | --- | --- | --- | --- | --- |
| 16 (≈ 14.9 µM) | 8 (≈ 7.44 µM) | >32 | 1 (≈ 0.93 µM) | 8 (≈ 7.44 µM) | >32 | >32 | 4 (≈ 3.72 µM) | CCCCCCCC(=O)N[C@@H](CO)C(=O)N[C@H](CCN)C(=O)N[C@H]1CCNC(=O)[C@H]([C@@H](C)O)NC(=O)[C@H](CCN)NC(=O)[C@H](CCN)NC(=O)[C@H](CC(C)C)NC(=O)[C@@H](Cc2ccccc2)NC(=O)[C@H](CCN)NC1=O [Compound 30] (Octanoyl-S[dDab][Dab][Dab][dF]L[Dab][Dab]T; lactam 3-C) | > 300 |  |  |  |  |  |  |  |  |
| >32 | 16 (≈ 15.3 µM) | >32 | 1 (≈ 0.957 µM) | >32 | >32 | >32 | 32 (≈ 30.6 µM) | CCCCCCCC(=O)NCC(=O)N[C@H](CCN)C(=O)N[C@H]1CCNC(=O)[C@H]([C@@H](C)O)NC(=O)[C@H](CCN)NC(=O)[C@H](CCN)NC(=O)[C@H](CC(C)C)NC(=O)[C@@H](Cc2ccccc2)NC(=O)[C@H](CCN)NC1=O [Compound 33] (Octanoyl-G[dDab][Dab][Dab][dF]L[Dab][Dab]T; lactam 3-C) | 262 |  |  |  |  |  |  |  |  |
